# Earlier results in patent US11480580B2, “Methods and reagents to label bacteria and virus and identify their interacting proteins” (priority 2019, dated 2022).
# System: ZIKV
# Conditions: prior studies
smiles,measurement,value
CN(C)CCCN1c2ccccc2Sc2ccc(Cl)cc21 [chlorpromazine],ZIKV infection,blocked
